Source: US9328075B2 (St. Jude Children's Research Hospital, priority 2011, dated 2016)

How the values were obtained:
[1] = target: IRdRp (PB2, PB1, PA and NP from the strain A/Vietnam/1203/04 (H1N1)) (Influenza A virus, UniProt Q5EP34); assay: cell-based; set-up: species or system influenza A/Vietnam/1203/04 (H1N1)
in vitro [2] = settings: human
in vitro [3] = settings: dog
[4] = system: A/Puerto Rico/8/34 (H1N1); assay: microbe, parasite or virus in culture; settings: Influenza A virus, H1N1, MDCK, 48 h, read-out: Growth Inhibition (%) 20 μM 48 h

| Compound | IC50 [1] [µM] | CC50 at 72 h (in vitro [2]) [µM] | CC50 at 72 h (in vitro [3]) [µM] | inhibition at 20 µM [4] [%] |
| --- | --- | --- | --- | --- |
| CCCCC(CC)CNC(=O)c1nc(-c2ccccn2)nc(O)c1O (stereo not shown) | 4.3 | < 25 | > 25 | 94 |
| CCCCCC(C)NC(=O)c1nc(-c2ccccn2)nc(O)c1O (stereo not shown) | 14.1 | < 25 | > 25 | 88 |
| CC(C)(C)CCNC(=O)c1nc(-c2ccccn2)nc(O)c1O | 10.1 | < 25 | > 25 | 88 |
| CC(C)CC(C)NC(=O)c1nc(-c2ccccn2)nc(O)c1O (stereo not shown) | 12.9 | > 25 | > 25 | 50 |
| CC1CCCCC1NC(=O)c1nc(-c2ccccn2)nc(O)c1O (stereo not shown) | 5.5 | < 25 | 5.5 | 97 |
| CC1CCC(NC(=O)c2nc(-c3ccccn3)[nH]c(=O)c2O)CC1 (stereo not shown) | 5.6 | < 25 | > 25 | 88 |
| O=C(NCc1cccc2ccccc12)c1nc(-c2ccccn2)[nH]c(=O)c1O | 9.1 | < 25 | > 25 | 94 |
| O=C(NC1CCCc2ccccc21)c1nc(-c2ccccn2)[nH]c(=O)c1O (stereo not shown) | 3.6 | 2.6 | 7 | 97 |
| Cc1cccc(NC(=O)c2nc(-c3ccccn3)nc(O)c2O)c1 | 27.1 | < 25 | > 25 | 75 |
| CC(C)(C)c1cccc(NC(=O)c2nc(-c3ccccn3)nc(O)c2O)c1 | 5.9 | < 25 | > 25 | 94 |
| Cc1ccccc1NC(=O)c1nc(-c2ccccn2)nc(O)c1O | 8.9 | > 25 | > 25 | 94 |
| COc1ccc(NC(=O)c2nc(-c3ccccn3)nc(O)c2O)c(C)c1 | 10 | < 25 | > 25 | 0 |
| CC(CNC(=O)c1nc(-c2ccccn2)nc(O)c1O)c1ccccc1 (stereo not shown) | 20.5 | < 25 | > 25 | 50 |
